Reference: US6977142B2, “High-throughput turbidometric assay for screening inhibitors of protein disulfide isomerase activity” (AGY Therapeutics, Inc., priority 2003, dated 2005)
Where “and” joins values, the source holds several entries; their conditions need not be identical. Equal entries are not always repeated. Where a SMILES comes first, the peptide text is derived from it.

Key:
[1] = target: T1, Protein disulfide isomerase (PDI) from bovine liver (Bos taurus, UniProt P05307); assay: High-throughput turbidometric assay of PDI-catalyzed insulin reduction (OD650, H2O2 stop); format: biochemical
T1 construct: Protein disulfide isomerase (PDI) from bovine liver (Catalog number P3818); purchased Sigma P3818; host or cells: bovine liver (tissue-derived enzyme)
T1 sequence (P05307 21-510): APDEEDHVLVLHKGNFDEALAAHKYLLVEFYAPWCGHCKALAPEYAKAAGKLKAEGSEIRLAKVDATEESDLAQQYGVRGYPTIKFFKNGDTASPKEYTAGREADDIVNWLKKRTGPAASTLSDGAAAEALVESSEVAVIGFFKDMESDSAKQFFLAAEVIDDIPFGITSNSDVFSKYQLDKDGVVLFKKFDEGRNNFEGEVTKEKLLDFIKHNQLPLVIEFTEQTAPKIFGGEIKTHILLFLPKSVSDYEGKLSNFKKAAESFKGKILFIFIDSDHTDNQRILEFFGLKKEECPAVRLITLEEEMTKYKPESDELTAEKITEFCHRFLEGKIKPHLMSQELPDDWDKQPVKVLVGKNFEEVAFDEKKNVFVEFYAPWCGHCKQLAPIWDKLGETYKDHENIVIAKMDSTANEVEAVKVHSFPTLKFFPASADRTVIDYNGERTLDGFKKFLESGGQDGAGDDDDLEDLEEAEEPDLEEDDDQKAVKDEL
Procedure: Protein disulfide isomerase (PDI) from bovine liver (Catalog number P3818), insulin from bovine pancreas (Catalog number 14011), dithiothreitol (Catalog number D9779), H2O2 (Catalog number H6520) and bacitracin (Catalog number B0125) were purchased from Sigma. A stock solution of 1.6 mM insulin was prepared by dissolving insulin in 0.1 N HCl. Clear polystyrene 384-well assay plates were obtained from Greiner (Catalog number 781101). All reagents used in this study were of analytical grade.
The assay utilized the method according to Bonfils (1998) Eur J Biochem 254:420–427, but was miniaturized in 384-well plates. The assay buffer consisted of 100 mM potassium phosphate and 0.2 mM EDTA, pH 7.0. In a standard room temperature assay, insulin from a 1.6 mM stock solution and PDI from a 5 mg/mL stock were added to final concentrations of 0.16 mM and 33 ug/mL in assay buffer, respectively. Aliquots of the reaction mixture were then added at 30 μL per well to 384-well assay plates. To initiate the reaction, 5 μL of 7 mM dithiothreitol (final concentration 1 mM) was added and quickly mixed. The enzyme reaction was monitored at 650 nm on a SpectraMax Plus plate reader (Molecular Devices, Sunnyvale, Calif.).
For high-throughput screening, a Biomek 2000 liquid handling system (Beckman-Coulter, Palo Alto, Calif.) was used to add 5 μL of 1 M positive control H2O2 to each well in column 24 of the assay plates. Then a Biomek FX384 pipettor (Beckman-Coulter, Palo Alto, Calif.) was programmed to automate the subsequent additions. The pipettor aspirated 29 μL of the enzyme/substrate mixture, applied a 0.5-μL air gap, dipped into DMSO to wash the pipette tip exterior, pipetted 1 μL of 300 μM compound, and then dispensed the entire volume into the assay plate. After the dispense step, the compound was mixed well with the enzyme and substrate. Following a 10 min pre-incubation, 5 μL of 7 mM dithiothreitol was dispensed into the reaction wells. This was followed immediately by a mixing step, in which 20 μL of the mixture was aspirated and dispensed twice in the well. The reaction was allowed to proceed for 30 min and stopped by adding 5 μL of 1 M H2O2 (final concentration 125 mM) to each well. The optical density of each well was measured at 650 nm on the SpectraMax Plus plate reader.
For data analysis, the results are presented as mean±standard deviation. Dose-response curves were fitted by least square regression using Prism (version 3.03). The Z′ factor was calculated according to Zhang et al. (1999) J Biomol Screen 4:67–73.

[2] = target: PDI (Homo sapiens, UniProt P07237); settings: insulin reduction assay, reported in the literature; cited from earlier work
Sequence of PDI (P07237 18-508, species assumed): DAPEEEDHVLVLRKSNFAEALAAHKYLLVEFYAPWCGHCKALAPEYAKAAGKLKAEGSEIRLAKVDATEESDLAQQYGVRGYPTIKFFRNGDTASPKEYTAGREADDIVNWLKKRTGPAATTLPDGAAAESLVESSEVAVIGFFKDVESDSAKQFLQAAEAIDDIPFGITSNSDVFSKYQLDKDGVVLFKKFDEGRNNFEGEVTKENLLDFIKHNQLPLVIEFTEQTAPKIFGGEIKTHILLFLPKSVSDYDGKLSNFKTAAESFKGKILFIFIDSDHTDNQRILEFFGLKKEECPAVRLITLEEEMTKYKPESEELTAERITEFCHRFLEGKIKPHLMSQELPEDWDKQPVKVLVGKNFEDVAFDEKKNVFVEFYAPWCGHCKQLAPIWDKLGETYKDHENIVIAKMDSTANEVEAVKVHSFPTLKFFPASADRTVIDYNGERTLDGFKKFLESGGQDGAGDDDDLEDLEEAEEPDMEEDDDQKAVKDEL

behaviour as stop reagent ([1]; 2 mM bacitracin added 30 min after initiation of the reaction): slow inhibitor
Hill slope ([1]; dose-response curve, non-linear regression): 1.2±0.2 and 1.2
IC50 ([1]; inhibitor incubated with enzyme and insulin 10 minutes prior to initiation with dithiothreitol, dose-response): 152 ± 25 µM
Structure (SMILES): CC[C@H](C)[C@H](N)C1=N[C@H](C(=O)N[C@@H](CC(C)C)C(=O)N[C@H](CCC(=O)O)C(=O)N[C@H](C(=O)N[C@H]2CCCCNC(=O)[C@H](CC(N)=O)NC(=O)[C@@H](CC(=O)O)NC(=O)[C@H](Cc3cnc[nH]3)NC(=O)[C@@H](Cc3ccccc3)NC(=O)[C@H]([C@@H](C)CC)NC(=O)[C@@H](CCCN)NC2=O)[C@@H](C)CC)CS1 [bacitracin] (HELM PEPTIDE1{[CC[C@H](C)[C@H](N)C1=N[C@H](C(=O)[*:2])CS1].L.[dE].I.K.[NCCC[C@@H](N[*:1])C(=O)[*:2]].I.[dF].H.[dD].N}$PEPTIDE1,PEPTIDE1,5:R3-11:R2$$$V2.0)
inhibition of the enzyme reaction ([1]; bacitracin incubated with the enzyme prior to the addition of dithiothreitol): dramatically inhibited the enzyme reaction
IC50 [2]: ~200 µM
